Data on 14 compounds can be found in patent US20250145665A1, “MACROCYCLIC PEPTIDES USEFUL AS MODULATORS OF TNF ALPHA” (Bristol-Myers Squibb Company, priority 2023, published 2025).

For orientation: IC50 means the concentration that gives 50% inhibition.

Starred links: 1 amine or outer side, 2 acyl side, 3 side chain; linkers in the order of their positions; H or OH if unused. Positions of bridges follow the written chain, without caps; N, C: chain ends. Non-standard residues stand in square brackets, D forms with d. Residues, ends and D or L forms follow the SMILES beside them. *: point of attachment. Bip(4'-(3-HOOC-benzamido)) = N[C@@H](Cc1ccc(-c2ccc(NC(=O)c3cccc(C(=O)O)c3)cc2)cc1)C(=O)O; Bip(4'-NHBz) = N[C@@H](Cc1ccc(-c2ccc(NC(=O)c3ccccc3)cc2)cc1)C(=O)O; Bip(4'-NH) = O=C([C@H](Cc1ccc(-c2ccc(N[*:3])cc2)cc1)N[*:1])[*:2]; Indazole3carbonyl(1-CH2COOH) = O=C(O)Cn1nc(C(=O)*)c2ccccc21; Bip(4'-COOH) = N[C@@H](Cc1ccc(-c2ccc(C(=O)O)cc2)cc1)C(=O)O; Ala(morpholin-4-yl) = N[C@@H](CN1CCOCC1)C(=O)O; Benzoyl(3-OCH2COOH) = O=C(O)COc1cccc(C(=O)*)c1; Phe(3-CONH2) = NC(=O)c1cccc(C[C@H](N)C(=O)O)c1; Bip = N[C@@H](Cc1ccc(-c2ccccc2)cc1)C(=O)O; Tiq1c(1S) = O=C(O)[C@H]1NCCc2ccccc21; X3 = O=C(O)c1cccc(Oc2ccccc2C(=O)*)c1; X48 = CC(C)(O)Cn1nc(C(=O)*)c2ccccc21; 2Pal = N[C@@H](Cc1ccccn1)C(=O)O; Tic = O=C(O)[C@@H]1Cc2ccccc2CN1; Cha = N[C@@H](CC1CCCCC1)C(=O)O; X20 = O=C(c1csc(-c2ccncc2)n1)*; Tle = CC(C)(C)[C@H](N)C(=O)O; Aze = O=C(O)[C@@H]1CCN1; Sar = CNCC(=O)O

Sequence of TNFα (P01375 77-233 limits assumed): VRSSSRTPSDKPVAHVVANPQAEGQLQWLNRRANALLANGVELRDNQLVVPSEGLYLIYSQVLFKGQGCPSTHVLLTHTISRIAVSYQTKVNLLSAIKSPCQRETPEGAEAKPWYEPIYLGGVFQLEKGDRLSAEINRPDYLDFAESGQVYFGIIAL

The first experiment concerns the target TNFα (Homo sapiens, UniProt P01375). The experiment is described as follows: TNF-Induced HEK-Blue Assay. It is filed as cell-based.
Conditions: not given
For the compound `CC[C@H](C)[C@@H]1NC(=O)[C@@H]2CCCN2C(=O)[C@H]([C@@H](C)CC)NC(=O)[C@@H](CCCNC(=N)N)NC(=O)[C@H](CC(=O)O)NC(=O)[C@H](Cc2ccccc2)NC(=O)CN(C)C(=O)[C@H](Cc2ccc(-c3ccc(NC(=O)c4ccccc4)cc3)cc2)NC(=O)[C@H](Cc2ccc(-c3ccc(C(=O)O)cc3)cc2)NC(=O)[C@H](C(C)(C)C)NC(=O)CSC[C@@H](C(=O)NCC(N)=O)NC(=O)[C@H](CC(C)C)NC(=O)[C@H](Cc2cnc[nH]2)NC1=O` [Example 350] ({CH2CO}-[Tle][Bip(4'-COOH)][Bip(4'-NHBz)][Sar]FD[dR]IPIHLCG-NH2; thioether N-13), the IC50 was < 50 nM.

Regarding `CC(C)C[C@@H]1NC(=O)[C@H](CCCNC(=N)N)NC(=O)[C@H](C(C)C)NC(=O)[C@@H]2CCCN2C(=O)[C@H](C(C)C)NC(=O)[C@@H](CCCNC(=N)N)NC(=O)[C@H](CC(=O)O)NC(=O)[C@@H]2CCCN2C(=O)CN(C)C(=O)[C@H](Cc2ccc(-c3ccc(NC(=O)c4nn(CC(C)(C)O)c5ccccc45)cc3)cc2)NC(=O)[C@H](Cc2ccc(-c3ccccc3)cc2)NC(=O)[C@H](CN2CCOCC2)NC(=O)CSC[C@@H](C(=O)NCC(N)=O)NC1=O` [Example 355] ({CH2CO}-[Ala(morpholin-4-yl)][Bip][Bip(4'-NH)](X48)[Sar]PD[dR]VPVRLCG-NH2; thioether N-13), the IC50 was < 50 nM.

Take `CC[C@H](C)[C@@H]1NC(=O)[C@@H]2CCCN2C(=O)[C@H]([C@@H](C)CC)NC(=O)[C@@H](CCCNC(=N)N)NC(=O)[C@H](CC(=O)O)NC(=O)[C@H](Cc2ccccn2)NC(=O)CN(C)C(=O)[C@H](Cc2ccc(-c3ccc(NC(=O)c4nn(CC(=O)O)c5ccccc45)cc3)cc2)NC(=O)[C@H](Cc2ccc(-c3ccccc3)cc2)NC(=O)[C@H](C(C)(C)C)NC(=O)CSC[C@@H](C(=O)NCC(N)=O)NC(=O)[C@H](CC(C)C)NC(=O)[C@H](Cc2cccc(C(N)=O)c2)NC1=O` [Example 356] ({CH2CO}-[Tle][Bip][Bip(4'-NH)](Indazole3carbonyl(1-CH2COOH))[Sar][2Pal]D[dR]IPI[Phe(3-CONH2)]LCG-NH2; thioether N-13): the IC50 is < 50 nM.

As for `CC[C@H](C)[C@@H]1NC(=O)[C@@H]2CCN2C(=O)[C@H]([C@@H](C)CC)NC(=O)[C@@H](CCCNC(=N)N)NC(=O)[C@H](CC(=O)O)NC(=O)[C@H](Cc2ccc(O)cc2)NC(=O)CN(C)C(=O)[C@H](Cc2ccc(-c3ccc(NC(=O)c4nn(CC(=O)O)c5ccccc45)cc3)cc2)NC(=O)[C@H](Cc2ccc(-c3ccccc3)cc2)NC(=O)[C@H](C(C)(C)C)NC(=O)CSC[C@@H](C(=O)NCC(N)=O)NC(=O)[C@H](CC(C)C)NC(=O)[C@H](Cc2ccc(O)cc2)NC1=O` [Example 357] ({CH2CO}-[Tle][Bip][Bip(4'-NH)](Indazole3carbonyl(1-CH2COOH))[Sar]YD[dR]I[Aze]IYLCG-NH2; thioether N-13), the IC50 lay in the range of 50 to 200 nM.

Consider `CC[C@H](C)[C@@H]1NC(=O)[C@@H]2CCCN2C(=O)[C@H]([C@@H](C)CC)NC(=O)[C@@H](CCCNC(=N)N)NC(=O)[C@H](CC(=O)O)NC(=O)[C@H](Cc2ccccc2)NC(=O)CN(C)C(=O)[C@H](Cc2ccc(-c3ccc(NC(=O)c4nn(CC(=O)O)c5ccccc45)cc3)cc2)NC(=O)[C@H](Cc2ccc(-c3ccc(C(=O)O)cc3)cc2)NC(=O)[C@H](C(C)(C)C)NC(=O)CSC[C@@H](C(=O)NCC(N)=O)NC(=O)[C@H](CC(C)C)NC(=O)[C@H](Cc2cnc[nH]2)NC1=O` [Example 359] ({CH2CO}-[Tle][Bip(4'-COOH)][Bip(4'-NH)](Indazole3carbonyl(1-CH2COOH))[Sar]FD[dR]IPIHLCG-NH2; thioether N-13), for which the IC50 is < 50 nM.

Turning to `CC[C@H](C)[C@@H]1NC(=O)[C@@H](CCCNC(=N)N)NC(=O)[C@H](CC(=O)O)NC(=O)[C@H](Cc2cnc[nH]2)NC(=O)CN(C)C(=O)[C@H](Cc2ccc(-c3ccc(NC(=O)c4nn(CC(=O)O)c5ccccc45)cc3)cc2)NC(=O)[C@H](Cc2ccc(-c3ccc(C(=O)O)cc3)cc2)NC(=O)[C@H](CC2CCCCC2)NC(=O)CSC[C@@H](C(=O)NCC(N)=O)NC(=O)[C@H](CC(C)C)NC(=O)[C@H](Cc2cnc[nH]2)NC(=O)[C@H](C(C)C)NC(=O)[C@@H]2c3ccccc3CCN2C1=O` [Example 360] ({CH2CO}-[Cha][Bip(4'-COOH)][Bip(4'-NH)](Indazole3carbonyl(1-CH2COOH))[Sar]HD[dR]I[Tiq1c(1S)]VHLCG-NH2; thioether N-13), the 50% inhibitory concentration (IC50) is < 50 nM.

`CC[C@H](C)[C@@H]1NC(=O)[C@@H](CCCNC(=N)N)NC(=O)[C@H](CC(=O)O)NC(=O)[C@H](Cc2cnc[nH]2)NC(=O)CN(C)C(=O)[C@H](Cc2ccc(-c3ccc(NC(=O)c4nn(CC(=O)O)c5ccccc45)cc3)cc2)NC(=O)[C@H](Cc2ccc(-c3ccc(C(=O)O)cc3)cc2)NC(=O)[C@H](CC2CCCCC2)NC(=O)CSC[C@@H](C(=O)NCC(N)=O)NC(=O)[C@H](CC(C)C)NC(=O)[C@H](Cc2cnc[nH]2)NC(=O)[C@H](C(C)C)NC(=O)[C@@H]2Cc3ccccc3CN2C1=O` [Example 361] ({CH2CO}-[Cha][Bip(4'-COOH)][Bip(4'-NH)](Indazole3carbonyl(1-CH2COOH))[Sar]HD[dR]I[Tic]VHLCG-NH2; thioether N-13): the IC50 was < 50 nM.

For the compound `CC(C)C[C@@H]1NC(=O)[C@H](Cc2ccccn2)NC(=O)[C@H](C(C)C)NC(=O)[C@@H]2CCCN2C(=O)[C@H](C(C)C)NC(=O)[C@@H](CCCNC(=N)N)NC(=O)[C@H](CC(=O)O)NC(=O)[C@H](Cc2ccc(O)cc2)NC(=O)CN(C)C(=O)[C@H](Cc2ccc(-c3ccc(NC(=O)c4nn(CC(=O)O)c5ccccc45)cc3)cc2)NC(=O)[C@H](Cc2ccc(-c3ccc(C(=O)O)cc3)cc2)NC(=O)[C@H](CC2CCCCC2)NC(=O)CSC[C@@H](C(=O)NCC(N)=O)NC1=O` [Example 362] ({CH2CO}-[Cha][Bip(4'-COOH)][Bip(4'-NH)](Indazole3carbonyl(1-CH2COOH))[Sar]YD[dR]VPV[2Pal]LCG-NH2; thioether N-13), the IC50 was < 50 nM.

As to `CC(C)C[C@@H]1NC(=O)[C@H](Cc2ccc(O)cc2)NC(=O)[C@H](C(C)C)NC(=O)[C@@H]2CCCN2C(=O)[C@H](C(C)C)NC(=O)[C@@H](CCCNC(=N)N)NC(=O)[C@H](CC(=O)O)NC(=O)[C@@H]2CCCN2C(=O)CN(C)C(=O)[C@H](Cc2ccc(-c3ccc(NC(=O)c4nn(CC(=O)O)c5ccccc45)cc3)cc2)NC(=O)[C@H](Cc2ccc(-c3ccc(C(=O)O)cc3)cc2)NC(=O)[C@H](CC2CCCCC2)NC(=O)CSC[C@@H](C(=O)NCC(N)=O)NC1=O` [Example 363] ({CH2CO}-[Cha][Bip(4'-COOH)][Bip(4'-NH)](Indazole3carbonyl(1-CH2COOH))[Sar]PD[dR]VPVYLCG-NH2; thioether N-13), the IC50 is < 50 nM.

For the compound `CC[C@H](C)[C@@H]1NC(=O)[C@@H](CCCNC(=N)N)NC(=O)[C@H](CC(=O)O)NC(=O)[C@H](Cc2cnc[nH]2)NC(=O)CN(C)C(=O)[C@H](Cc2ccc(-c3ccc(NC(=O)c4nn(CC(=O)O)c5ccccc45)cc3)cc2)NC(=O)[C@H](Cc2ccc(-c3ccccc3)cc2)NC(=O)[C@H](CC2CCCCC2)NC(=O)CSC[C@@H](C(=O)NCC(N)=O)NC(=O)[C@H](CC(C)C)NC(=O)[C@H](Cc2cnc[nH]2)NC(=O)[C@H](C(C)C)NC(=O)[C@@H]2CCCN2C1=O` [Example 364] ({CH2CO}-[Cha][Bip][Bip(4'-NH)](Indazole3carbonyl(1-CH2COOH))[Sar]HD[dR]IPVHLCG-NH2; thioether N-13), the IC50 was < 50 nM.

Staying with this experiment, now noted: HEK-Blue-CD40L cells, NF-kB-driven secreted alkaline phosphatase reporter; TNFα 0.5 ng/ml; 18 h; read-out: TNF induced HEK-Blue assay IC50 value.
Regarding `CC[C@H](C)[C@@H]1NC(=O)[C@@H]2CCCN2C(=O)[C@H]([C@@H](C)CC)NC(=O)[C@@H](CCCNC(=N)N)NC(=O)[C@H](CC(=O)O)NC(=O)[C@H](Cc2ccccc2)NC(=O)CN(C)C(=O)[C@H](Cc2ccc(-c3ccc(NC(=O)c4cccc(C(=O)O)c4)cc3)cc2)NC(=O)[C@H](Cc2ccc(-c3ccc(C(=O)O)cc3)cc2)NC(=O)[C@H](C(C)(C)C)NC(=O)CSC[C@@H](C(=O)NCC(N)=O)NC(=O)[C@H](CC(C)C)NC(=O)[C@H](Cc2cnc[nH]2)NC1=O` [Example 351] ({CH2CO}-[Tle][Bip(4'-COOH)][Bip(4'-(3-HOOC-benzamido))][Sar]FD[dR]IPIHLCG-NH2; thioether N-13), the IC50 was < 50 nM.

On to `CC[C@H](C)[C@@H]1NC(=O)[C@@H]2CCCN2C(=O)[C@H]([C@@H](C)CC)NC(=O)[C@@H](CCCNC(=N)N)NC(=O)[C@H](CC(=O)O)NC(=O)[C@H](Cc2ccccc2)NC(=O)CN(C)C(=O)[C@H](Cc2ccc(-c3ccc(NC(=O)c4cccc(OCC(=O)O)c4)cc3)cc2)NC(=O)[C@H](Cc2ccc(-c3ccc(C(=O)O)cc3)cc2)NC(=O)[C@H](C(C)(C)C)NC(=O)CSC[C@@H](C(=O)NCC(N)=O)NC(=O)[C@H](CC(C)C)NC(=O)[C@H](Cc2cnc[nH]2)NC1=O` [Example 352] ({CH2CO}-[Tle][Bip(4'-COOH)][Bip(4'-NH)](Benzoyl(3-OCH2COOH))[Sar]FD[dR]IPIHLCG-NH2; thioether N-13), for which the IC50 is < 50 nM.

For `CC[C@H](C)[C@@H]1NC(=O)[C@@H]2CCCN2C(=O)[C@H]([C@@H](C)CC)NC(=O)[C@@H](CCCNC(=N)N)NC(=O)[C@H](CC(=O)O)NC(=O)[C@H](Cc2ccccc2)NC(=O)CN(C)C(=O)[C@H](Cc2ccc(-c3ccc(NC(=O)c4csc(-c5ccncc5)n4)cc3)cc2)NC(=O)[C@H](Cc2ccc(-c3ccc(C(=O)O)cc3)cc2)NC(=O)[C@H](C(C)(C)C)NC(=O)CSC[C@@H](C(=O)NCC(N)=O)NC(=O)[C@H](CC(C)C)NC(=O)[C@H](Cc2cnc[nH]2)NC1=O` [Example 353] ({CH2CO}-[Tle][Bip(4'-COOH)][Bip(4'-NH)](X20)[Sar]FD[dR]IPIHLCG-NH2; thioether N-13), the IC50 is < 50 nM.

For the compound `CC[C@H](C)[C@@H]1NC(=O)[C@@H](CCCNC(=N)N)NC(=O)[C@H](CC(=O)O)NC(=O)[C@H](Cc2cnc[nH]2)NC(=O)CN(C)C(=O)[C@H](Cc2ccc(-c3ccc(NC(=O)c4ccccc4Oc4cccc(C(=O)O)c4)cc3)cc2)NC(=O)[C@H](Cc2ccc(-c3ccccc3)cc2)NC(=O)[C@H](CC2CCCCC2)NC(=O)CSC[C@@H](C(=O)NCC(N)=O)NC(=O)[C@H](CC(C)C)NC(=O)[C@H](Cc2cnc[nH]2)NC(=O)[C@H](C(C)C)NC(=O)[C@@H]2CCCN2C1=O` [Example 354] ({CH2CO}-[Cha][Bip][Bip(4'-NH)](X3)[Sar]HD[dR]IPVHLCG-NH2; thioether N-13), the IC50 lay in the range of 50 to 200 nM.
